This is an account of results in patent US20090253669A1, “Substituted Sulfonamide Compounds” (GRUENENTHAL GmbH, priority 2008, published 2009).

Experiment [1] deals with T1, human B1R receptor (hB1R) (Homo sapiens, UniProt P46663).
T1 construct: host or cells: CHO K1 cells
T1 sequence (P46663 1-353): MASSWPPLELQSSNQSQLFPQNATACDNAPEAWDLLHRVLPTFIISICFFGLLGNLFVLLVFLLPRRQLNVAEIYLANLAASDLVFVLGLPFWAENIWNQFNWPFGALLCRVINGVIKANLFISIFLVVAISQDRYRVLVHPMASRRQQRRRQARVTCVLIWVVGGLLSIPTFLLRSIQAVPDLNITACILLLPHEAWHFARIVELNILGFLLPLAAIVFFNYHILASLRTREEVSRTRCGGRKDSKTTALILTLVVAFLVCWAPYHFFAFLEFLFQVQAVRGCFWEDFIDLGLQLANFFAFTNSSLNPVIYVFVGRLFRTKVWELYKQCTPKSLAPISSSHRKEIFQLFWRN
Nature of the experiment: FLIPR Ca2+ assay on hB1R-transfected CHO K1 cells, antagonistic action. In kind it is cell-based. As to conditions: CHO-K1, 10 μM test substance; agonist Lys-Des-Arg9-bradykinin 0.5 nM; % of maximum achievable inhibition; read-out: hB1R [10 μM] % inhibition.

In experiment [2] the target is T2, B1R receptor of the rat (rB1R) (Rattus norvegicus, UniProt P97583).
T2 construct: host or cells: CHO K1 cells
T2 sequence (P97583 1-337): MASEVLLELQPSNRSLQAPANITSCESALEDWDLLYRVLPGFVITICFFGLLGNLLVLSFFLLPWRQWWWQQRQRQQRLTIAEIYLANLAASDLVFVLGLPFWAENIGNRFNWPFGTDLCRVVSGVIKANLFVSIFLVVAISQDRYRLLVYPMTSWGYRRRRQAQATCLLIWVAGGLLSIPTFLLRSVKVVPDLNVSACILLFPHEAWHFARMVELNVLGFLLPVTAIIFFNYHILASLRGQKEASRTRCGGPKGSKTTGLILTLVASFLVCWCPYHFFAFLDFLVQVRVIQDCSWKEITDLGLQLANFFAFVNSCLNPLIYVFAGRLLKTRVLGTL
Nature of the experiment: FLIPR Ca2+ assay on rB1R-transfected CHO K1 cells, antagonistic action. The experiment is classed as cell-based. The settings on record: CHO-K1, 10 μM test substance; agonist Des-Arg9-bradykinin 100 nM; % of maximum achievable inhibition; read-out: rB1R [10 μM] % inhibition.

In general, inhibition refers to the drop in the measured response relative to a control, in per cent.

In the case of `COc1cc(C)c(S(=O)(=O)N2CCCCC2COCC(=O)N2CCC(c3cccc(F)c3)(N3CCN(C)CC3)CC2)c(C)c1` (centres unmarked) [Compound 211, 1-(4-(3-Fluorophenyl)-4-(4-methylpiperazin-1-yl)piperidin-1-yl)-2-((1-(4-methoxy-2,6-dimethylphenylsulfonyl)piperidin-2-yl)methoxy)ethanone], the inhibition at 10 µM came out at 100% in experiment [1] and 101% in experiment [2].
For `COc1cc(C)c(S(=O)(=O)N2CCCCC2COCC(=O)N2CCC(CCc3ccccc3)(N3CCN(C)CC3)CC2)c(C)c1` (centres unmarked) [Compound 77, 2-((1-(4-methoxy-2,6-dimethylphenylsulfonyl)piperidin-2-yl)methoxy)-1-(4-(4-methylpiperazin-1-yl)-4-phenethylpiperidin-1-yl)ethanone] the same measures were 100% and 99%.
Regarding `CN1CCN(C2(c3ccccc3)CCN(C(=O)CC3CCCCN3S(=O)(=O)c3cccc(C(F)(F)F)c3)CC2)CC1` (centres unmarked) [Compound 64, 1-(4-(4-methylpiperazin-1-yl)-4-phenylpiperidin-1-yl)-2-(1-(3-(trifluoromethyl)phenylsulfonyl)piperidin-2-yl)ethanone], the inhibition at 10 µM in experiment [1] came to 84%; in experiment [2], 100%.
Take `COc1cc(C)c(S(=O)(=O)N(C)CCOCC(=O)N2CCC(c3ccc(F)cc3)(N3CCN(C)CC3)CC2)c(C)c1` [Compound 42, N-(2-(2-(4-(4-fluorophenyl)-4-(4-methylpiperazin-1-yl)piperidin-1-yl)-2-oxoethoxy)ethyl)-4-methoxy-N,2,6-trimethylbenzenesulfonamide]: the inhibition at 10 µM in experiment [1] is 105%; in experiment [2] it was 101%.
In the case of `COc1cc(C)c(S(=O)(=O)N2CCC(OCC(=O)NC3CCC(Cc4ccccc4)(N4CCCC4)CC3)C2)c(C)c1` (centres unmarked) [Compound 166, N-(4-benzyl-4-(pyrrolidin-1-yl)cyclohexyl)-2-(1-(4-methoxy-2,6-dimethylphenylsulfonyl)pyrrolidin-3-yloxy)acetamide], the results for the inhibition at 10 µM in experiment [1] and in experiment [2] were 92% and 90%, respectively.
`COc1cc(C)c(S(=O)(=O)N(C)CCOCC(=O)N(C)CCC2CCC(c3ccccc3)(N(C)C)CC2)c(C)c1` (centres unmarked) [Compound 72, N-(2-(4-(dimethylamino)-4-phenylcyclohexyl)ethyl)-2-(2-(4-methoxy-N,2,6-trimethylphenylsulfonamido)ethoxy)-N-methylacetamide]: the values for the inhibition at 10 µM in experiment [1] and in experiment [2] were 103% and 99%, respectively.
Consider `CN(CCCC1CCC(Cc2ccccc2)(N2CCCC2)CC1)C(=O)CC(NS(=O)(=O)c1ccc2ccccc2c1)c1ccccc1` (centres unmarked) [Compound 74, N-(3-(4-benzyl-4-(pyrrolidin-1-yl)cyclohexyl)propyl)-N-methyl-3-(naphthalene-2-sulfonamido)-3-phenylpropanamide], for which the inhibition at 10 µM worked out at 102% in experiment [1] and 99% in experiment [2].
Turning to `O=C(COCC1CCCN1S(=O)(=O)c1c(Cl)cc(Cl)cc1Cl)NC1CCC(c2ccccc2)(N2CCOCC2)CC1` (centres unmarked) [Compound 164, N-(4-morpholino-4-phenylcyclohexyl)-2-((1-(2,4,6-trichlorophenylsulfonyl)pyrrolidin-2-yl)methoxy)acetamide], the inhibition at 10 µM worked out at 74% in experiment [1] and 90% in experiment [2].
As to `COc1cc(C)c(S(=O)(=O)N(C)CCOCC(=O)NC2CCC(CCc3ccccc3)(N(C)C)CC2)c(C)c1C` (centres unmarked) [Compound 24, N-(4-(dimethylamino)-4-phenethylcyclohexyl)-2-(2-(4-methoxy-N,2,3,6-tetramethylphenylsulfonamido)ethoxy)acetamide], the inhibition at 10 µM in experiment [1] turned out to be 97%; in experiment [2], 65%.
Regarding `CN1CCN(C2(Cc3ccccc3)CCC(CN(C)C(=O)COCC3CCCN3S(=O)(=O)c3c(Cl)cc(Cl)cc3Cl)CC2)CC1` (centres unmarked) [Compound 168, N-((4-benzyl-4-(4-methylpiperazin-1-yl)cyclohexyl)methyl)-N-methyl-2-((1-(2,4,6-trichlorophenylsulfonyl)pyrrolidin-2-yl)methoxy)acetamide], the inhibition at 10 µM in experiment [1] and in experiment [2] was 88% throughout.
As for `COc1cc(C)c(S(=O)(=O)N(C)CCOCC(=O)N(C)CCC2CCC(CCc3ccccc3)(N(C)C)CC2)c(C)c1` (centres unmarked) [Compound 52, N-(2-(4-(dimethylamino)-4-phenethylcyclohexyl)ethyl)-2-(2-(4-methoxy-N,2,6-trimethylphenylsulfonamido)ethoxy)-N-methylacetamide], the figures for the inhibition at 10 µM in experiment [1] and in experiment [2] were 104% and 100%, respectively.
`COc1cc(C)c(S(=O)(=O)N2CCCCC2CCCC(=O)N2CCC(c3cccc(F)c3)(N3CCN(C)CC3)CC2)c(C)c1` (centres unmarked) [Compound 214, 1-(4-(3-Fluorophenyl)-4-(4-methylpiperazin-1-yl)piperidin-1-yl)-4-(1-(4-methoxy-2,6-dimethylphenylsulfonyl)piperidin-2-yl)butan-1-one]: the inhibition at 10 µM in experiment [1] came out at 99%; in experiment [2], 101%.
`COc1cc(C)c(S(=O)(=O)N(C)CCOCC(=O)N(C)CCCC2CCC(c3ccccc3)(N3CCCC3)CC2)c(C)c1` (centres unmarked) [Compound 83, 2-(2-(4-methoxy-N,2,6-trimethylphenylsulfonamido)ethoxy)-N-methyl-N-(3-(4-phenyl-4-(pyrrolidin-1-yl)cyclohexyl)propyl)acetamide]: the figures for the inhibition at 10 µM in experiment [1] and in experiment [2] were 103% and 99%, respectively.
On to `CN(CCC1CCC(c2ccccc2)(N(C)C)CC1)C(=O)COCC1CCc2ccccc2N1S(=O)(=O)c1ccc(Cl)c(Cl)c1` (centres unmarked) [Compound 111, 2-((1-(3,4-dichlorophenylsulfonyl)-1,2,3,4-tetrahydroquinolin-2-yl)methoxy)-N-(2-(4-(dimethylamino)-4-phenylcyclohexyl)ethyl)-N-methylacetamide], for which the results for the inhibition at 10 µM in experiment [1] and in experiment [2] were 80% and 78%, respectively.
In the same order, the values of `CN(CC1CCC(c2ccccc2)(N2CCCC2)CC1)C(=O)CC1CCCCN1S(=O)(=O)c1cccc(C(F)(F)F)c1` (centres unmarked) [Compound 33, N-methyl-N-((4-phenyl-4-(pyrrolidin-1-yl)cyclohexyl)methyl)-2-(1-(3-(trifluoromethyl)phenylsulfonyl)piperidin-2-yl)acetamide] are 94% and 101%.
For `COc1cc(C)c(S(=O)(=O)N(C)CCOCC(=O)N(C)CC2CCC(Cc3ccccc3)(N3CCCC3)CC2)c(C)c1` (centres unmarked) [Compound 45, N-((4-benzyl-4-(pyrrolidin-1-yl)cyclohexyl)methyl)-2-(2-(4-methoxy-N,2,6-trimethylphenylsulfonamido)ethoxy)-N-methylacetamide] the same measures were 104% and 100%.
`CN(CC1CCC(CCc2ccccc2)(N2CCCC2)CC1)C(=O)CC1CCCCN1S(=O)(=O)c1cccc(C(F)(F)F)c1` (centres unmarked) [Compound 38, N-methyl-N-((4-phenethyl-4-(pyrrolidin-1-yl)cyclohexyl)methyl)-2-(1-(3-(trifluoromethyl)phenylsulfonyl)piperidin-2-yl)acetamide]: the inhibition at 10 µM in experiment [1] is 98%; in experiment [2] it was 101%.
Take `COc1cc(C)c(S(=O)(=O)N2c3ccccc3CCC2COCC(=O)N2CCC(c3cccc(F)c3)(N3CCN(C)CC3)CC2)c(C)c1` (centres unmarked) [Compound 220, 1-(4-(3-Fluorophenyl)-4-(4-methylpiperazin-1-yl)piperidin-1-yl)-2-((1-(4-methoxy-2,6-dimethylphenylsulfonyl)-1,2,3,4-tetrahydroquinolin-2-yl)methoxy)ethanone]: the inhibition at 10 µM in experiment [2] was 97%.
As for `COc1cc(C)c(S(=O)(=O)N(CCOCC(=O)N2CCC(c3cccc(F)c3)(N3CCN(C)CC3)CC2)c2ccccc2)c(C)c1` [Compound 219, N-(2-(2-(4-(3-Fluorophenyl)-4-(4-methylpiperazin-1-yl)piperidin-1-yl)-2-oxoethoxy)ethyl)-4-methoxy-2,6-dimethyl-N-phenylbenzenesulfonamide], the inhibition at 10 µM in experiment [2] is 61%.
Turning to `COc1cc(C)c(S(=O)(=O)N(CCOCC(=O)N2CCC(c3cccc(F)c3)(N3CCN(C)CC3)CC2)Cc2ccccc2)c(C)c1` [Compound 218, N-Benzyl-N-(2-(2-(4-(3-fluorophenyl)-4-(4-methylpiperazin-1-yl)piperidin-1-yl)-2-oxoethoxy)ethyl)-4-methoxy-2,6-dimethylbenzenesulfonamide], the inhibition at 10 µM in experiment [2] worked out at 101%.
As for `COc1cc(C)c(S(=O)(=O)N(C)CCOCC(=O)N2CCC(c3cccc(F)c3)(N3CCN(C)CC3)CC2)c(C)c1C` [Compound 224, N-(2-(2-(4-(3-Fluorophenyl)-4-(4-methylpiperazin-1-yl)piperidin-1-yl)-2-oxoethoxy)ethyl)-4-methoxy-N,2,3,6-tetramethylbenzenesulfonamide], the inhibition at 10 µM in experiment [2] amounted to 100%.
